These results are taken from patent US20240216369A1, “THE USE OF A SPLICING MODULATOR FOR A TREATMENT SLOWING PROGRESSION OF HUNTINGTON'S DISEASE” (Novartis AG, priority 2019, published 2024).

Test [1] concerns HTT transcript. The test can be described thus: In vitro evaluation in SH-SY5Y cells: HTT transcript by quantitative PCR. Conditions: 24 hours. The test is classed as cell-based, human. How it is done:
Cultured human neuroblastoma (SH-SY5Y cell line) cells were treated at doses ranging from 5 nM-125 nM for 24 hours (for transcript evaluation) or 48 hours (for protein evaluation). RNA was quantified by Nanodrop 2000 (Thermo Scientific). cDNAs were synthesized from 140-400 ng RNA using Maxima First strand cDNA synthesis kit using a mix of oligo dT and random hexamers (Thermo Scientific) in 20 uL reaction at 25° C. for 10 min, 50° C. for 15 min then 85° C. for 5 min. Quantitative PCR was performed using Taqman Fast Advanced master mix (Thermo Scientific) in 20 uL with 4 uL of cDNA reaction and primers specific for each genes. The PCR steps were as follows: 95° C. for 20 sec then 40 cycles of 95° C. for 1 sec, 55° C. for 20 sec. The sequence of primers were, for WT human HTT, forward, 5′-[…]-3′ (SEQ ID NO: 1); reverse, 5′-[…]-3′ (SEQ ID NO: 2) and sequence of probe was 56-FAM/TTG TGA AAT/ZEN/TCG TGG TGG CAA CCC/3IABKFQ/(SEQ ID NO: 8), for HTT novel exon, forward, 5′-[…]-3′ (SEQ ID NO: 3); reverse, 5′-[…]-3′ (SEQ ID NO: 4) and sequence of probe/56-FAM/AAT TCG TGG/ZEN/TGG CAA CCC TTG AGA/3IABKFQ/(SEQ ID NO: 7). Relative quantification of gene expression was performed using 2-AACT method. Fold changes in the mRNA expression level was calculated following normalization to […] glucuronidase beta (Gusb) as an endogenous reference (FIGS. 2a and 2b).

For test [2], the system named is Huntingtin protein. Nature of the test: In vitro evaluation in SH-SY5Y cells: Huntingtin protein by Western blot. The test is classed as cell-based, human. Conditions: 48 hours. How it is done: Cultured human neuroblastoma (SH-SY5Y cell line) cells were treated at doses ranging from 5 nM-125 nM for 24 hours (for transcript evaluation) or 48 hours (for protein evaluation). RNA was quantified by Nanodrop 2000 (Thermo Scientific). cDNAs were synthesized from 140-400 ng RNA using Maxima First strand cDNA synthesis kit using a mix of oligo dT and random hexamers (Thermo Scientific) in 20 uL reaction at 25° C. for 10 min, 50° C. for 15 min then 85° C. for 5 min. Quantitative PCR was performed using Taqman Fast Advanced master mix (Thermo Scientific) in 20 uL with 4 uL of cDNA reaction and primers specific for each genes. The PCR steps were as follows: 95° C. for 20 sec then 40 cycles of 95° C. for 1 sec, 55° C. for 20 sec. […] Relative quantification of gene expression was performed using 2-AACT method. Fold changes in the mRNA expression level was calculated following normalization to […] glucuronidase beta (Gusb) as an endogenous reference (FIGS. 2a and 2b).
For protein analysis, cells were lysed in RIPA buffer with protease and phosphatase inhibitor (Thermo Scientific). […] Total protein concentration was quantified using the BCA protein Assay (Thermo Scientific). […] Protein bands were quantified by Image J.
(In general: In western blotting, separated proteins are transferred to a membrane and probed.)

The subject of test [3] is mHTT. The test can be described thus: Mutant and total HTT multiplex HTRF assay in Q48 HTT human embryonic stem cell line: mHTT. The note with it: Q48 HTT hESC, 48 hours. The test is classed as cell-based. In short, it runs like this:
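Q48 HTT hESCs from HD donors were treated with compound for 48 h at 37 °C after 24 h adherence, then lysed. Lysates were read by multiplex HTRF with N-terminal donor, polyQ (MW1) and post-polyQ (MAB2166) antibodies for 4-6 h at RT. Donor/acceptor ratios give relative mHTT and tHTT; pIC50 reported.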
(In general: In TR-FRET formats the signal depends on donor and acceptor labels being close together.)

Test [4] has as its system mutant HTT protein. The test can be described thus: Mouse population PK/PD turnover model based on BacHD mouse. Format: in vivo. Conditions: for Imax: set to 1. An excerpt:
For the development of the PK/PD relationship, the concentration of mutant HTT protein in the brain of BacHD mice and its changes after branaplam administration were used as PD biomarker (Example 1a). To increase the data base, all concentrations of the mutant HTT protein were pooled. The correlation between branaplam concentrations in plasma and the mutant HTT protein concentrations in the brain were investigated by means of a turnover model (described below) considering the inhibition of the production of mutant HTT protein in the brain. Since mutant HTT protein was determined in brain cortex and brain striatum, the PK/PD correlations were executed for both brain parts separately. […] For the execution of the population PK/PD model, the PK parameters (presented in Table 6) from the previously described population PK model were fixed and the PD parameters were calculated. The Monolix software (Version 2018R1, Lixoft) and its turnover model described in the library (pkpd/oral1_2cpt_SigmoidindirectModelinhibitionKin_TlagkaCIV1QV2R0koutimaxIC50gamma) was used to determine the PD parameters in the mouse. The PD part of the model can be described by the following equation:
mutant HTT protein change over time=kin*(1−I max*max(Cc,0)^gamma/(max(Cc,0)^gamma+IC50^gamma))−kout*R • kin: synthesis rate of mutant HTT protein • kout: degradation rate of mutant HTT protein • Imax: maximum inhibition effect • IC50: half-maximum inhibitory concentration • gamma: sigmoidicity of the drug effect • max(Cc,0): branaplam plasma concentration • R: mutant HTT protein level at a given time with baseline R0 of 1 since only relative changes to the baseline were determined in the BacHD mouse model, Example 1a
It has to be noted, that the maximum inhibitory effect was set to 1 and the mutant HTT protein baseline, R0, was set to 1 since only relative changes to the baseline were determined in the BacHD mouse (Example 1a).

A word on the EC50: it is the midpoint of the concentration-response curve.

Take `CC1(C)CC(Oc2ccc(-c3ccc(-c4cn[nH]c4)cc3O)nn2)CC(C)(C)N1` [Compound 18, 5-(1H-pyrazol-4-yl)-2-(6-((2,2,6,6-tetramethylpiperidin-4-yl)oxy)pyridazin-3-yl)phenol]: the “increase in novel-exon-containing HTT transcript” value in test [1] (5 nM-125 nM) is 100-500 fold. The “lowering of total Huntingtin transcript” value in test [1] (5 nM-125 nM) is 30-90 % of normal endogenous levels. Further, the EC50 in test [1] (Homo sapiens, read-out: EC50 for lowering of HTT transcript) was 20 to 25 nM; in test [2] (read-out: EC50 for HTT protein lowering), 10 to 25 nM. Further, in test [2] (5 nM-125 nM, Western blot), the “reduction of normal Huntingtin protein” value is on record as 50-70%. Further, the “Rating (based on mHTT potency)” value in test [3] is “**** (a pIC50 value between 7.0 and 7.5 is indicated by four stars (****))”. Moreover, the “mHTT pIC50” value in test [3] was found to be 7.2795. The “time of maximum decrease of mutant HTT protein in the brain” value in test [4] (BacHD mouse) was “about 72 h post dose”. Moreover, the “IC50 (plasma concentration, inhibition of mutant HTT protein production)” value amounted to 0.174 µg/mL in test [4] (popPD parameters (cortex), BacHD mouse) and 0.0682 µg/mL in test [4] (popPD parameters (striatum), BacHD mouse). Moreover, the Imax in test [4] (popPD parameters (cortex)) and in test [4] (popPD parameters (striatum)) was 1 throughout.
